Assay results as given in patent US12459967B2, “Modulators of 5′-nucleotidase, ecto and the use thereof” (Arcus Biosciences, Inc., priority 2016, dated 2025).

Molecular target: T1, human CD73 (Homo sapiens, UniProt P21589)
T1 construct: host or cells: CHO-K1 (suspension pool CHO-CD73)
T1 sequence (P21589 27-549): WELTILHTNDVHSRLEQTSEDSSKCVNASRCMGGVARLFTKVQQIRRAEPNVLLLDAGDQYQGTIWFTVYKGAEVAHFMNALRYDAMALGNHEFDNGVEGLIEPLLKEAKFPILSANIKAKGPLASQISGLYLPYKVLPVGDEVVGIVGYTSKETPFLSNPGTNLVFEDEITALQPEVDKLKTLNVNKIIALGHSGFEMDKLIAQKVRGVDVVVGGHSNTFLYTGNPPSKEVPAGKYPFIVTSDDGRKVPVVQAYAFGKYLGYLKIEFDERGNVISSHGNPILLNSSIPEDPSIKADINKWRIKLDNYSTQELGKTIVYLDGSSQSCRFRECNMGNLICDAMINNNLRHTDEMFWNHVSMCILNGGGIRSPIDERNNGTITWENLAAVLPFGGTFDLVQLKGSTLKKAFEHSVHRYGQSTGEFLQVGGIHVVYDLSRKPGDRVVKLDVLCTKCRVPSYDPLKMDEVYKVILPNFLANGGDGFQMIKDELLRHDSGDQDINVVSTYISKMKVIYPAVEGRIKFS
Assay: Inhibition of ecto-5′-nucleotidase (CD73) activity in CHO-CD73 cells, phosphate colorimetric readout
Format: cell-based
Details: CHO-K1 cells stably transfected with human CD73, 2500 cells per well, 25 μM AMP substrate, 50 minutes incubation at 37° C.; read-out: Potency: CD73 IC50
Description: Inhibition of Ecto-5′-nucleotidase Activity. Compounds were evaluated to determine their ecto-5′-nucleotidase (CD73) inhibitory activity. Briefly, CHO-K1 cells stably transfected with human CD73 were generated by LakePharma (Belmont, CA) using molecular cloning of human CD73 (http://www.uniprot.org/uniprot/P21589) and mammalian transient expression vector (P21589.1). After antibiotic selection in CD OptiCHO cell media (Invitrogen, Catalog #12681-011) containing 5 μg/mL Puromycin and 200 μg/mL Hygromycin B, a suspension pool of CHO-CD73 cells was collected and frozen in 7.5% DMSO in cell media without antibiotics.
On the day of the experiment, one vial of CHO-CD73 cells was thawed and suspended in assay media which consisted of 20 mM HEPES, pH 7.4, 137 mM NaCl, 5.4 mM KCl, 1.3 mM CaCl2), 4.2 mM NaHCO3 and 0.1% glucose. To test the ability of compounds to inhibit CD73 enzymatic activity, 2 μL of 500 μM of compounds dissolved in DMSO (50×) were added to a 96-well polystyrene plate containing 58 μL of assay buffer. Next, 20 μL of CHO-CD73 cells in assay buffer were added to assay plate followed by 20 μL of 125 μM AMP (Adenosine 5′-monophosphate monohydrate) in assay buffer. Final assay conditions consisted of 2500 cells per well in 2% DMSO and 25 μM of AMP substrate. After 50 minutes of incubation (37° C. and 5% CO2) and centrifugation at 225×g for 5 mins, 80 μL of supernatant were transferred to a 96-well Spectra Plate (PerkinElmer, cat #6005640) which was pre-dispensed with 20 μL of PiColorLock Gold colorimetric assay reagents (Thermo, cat #30 300 30). The amount of inorganic phosphate was determined by reading the absorbance at 620 nm on an EnVision Multilabel Plate Reader (PerkinElmer). Enzymatic activity of CD73 was based on the amount of phosphate generated. Percentage of activity was calculated based on DMSO and no cells control wells. IC50 values of compounds were determined by four parameter non-linear regression fitting of percentage of activity in GraphPad Prism software.

IC50 [nM] | Structure (SMILES)
< 100 | O=P(O)(O)CP(=O)(O)OC[C@H]1O[C@@H](n2cnc3c(NCc4cc(Cl)cc(Cl)c4)ncnc32)[C@H](O)[C@@H]1O
< 100 | Cc1nc(NCc2ccccc2)c2ncn([C@@H]3O[C@H](COP(=O)(O)CP(=O)(O)O)[C@@H](O)[C@H]3O)c2n1
< 100 | CCc1nc(NCc2ccccc2)c2ncn([C@@H]3O[C@H](COP(=O)(O)CP(=O)(O)O)[C@@H](O)[C@H]3O)c2n1
< 100 | CC(C)Sc1nc(NCc2ccccc2)c2ncn([C@@H]3O[C@H](COP(=O)(O)CP(=O)(O)O)[C@@H](O)[C@H]3O)c2n1
100 to 1000 | Nc1nc(F)nc2c1ncn2[C@@H]1O[C@H](COP(=O)(O)CP(=O)(O)O)[C@@H](O)[C@@H]1O
> 1000 | Nc1ncnc2c1ncn2[C@@H]1O[C@H](COP(=O)(O)CP(=O)(O)O)[C@@H](O)[C@H]1F
< 100 | CN(Cc1ccccc1)c1nc(Cl)nc2c1ncn2[C@@H]1O[C@H](COP(=O)(O)CP(=O)(O)O)[C@@H](O)[C@@H]1F
< 100 | CNc1nc(Cl)nc2c1ncn2[C@@H]1O[C@H](COP(=O)(O)CP(=O)(O)O)[C@@H](O)[C@@H]1F
< 100 | O=P(O)(O)CP(=O)(O)OC[C@H]1O[C@@H](n2cnc3c(NC4CCCC4)nc(Cl)nc32)[C@@H](F)[C@@H]1O
< 100 | O=P(O)(O)CP(=O)(O)OC[C@H]1O[C@@H](n2cnc3c(N[C@@H]4CCOC4)nc(Cl)nc32)[C@@H](F)[C@@H]1O
< 100 | O=P(O)(O)CP(=O)(O)OC[C@H]1O[C@@H](n2cnc3c(N4CCOCC4)nc(Cl)nc32)[C@@H](F)[C@@H]1O
< 100 | O=P(O)(O)CP(=O)(O)OC[C@H]1O[C@@H](n2cnc3c(N4Cc5ccccc5C4)nc(Cl)nc32)[C@@H](F)[C@@H]1O
< 100 | C[C@@H](Nc1nc(Cl)nc2c1ccn2[C@@H]1O[C@H](COP(=O)(O)CP(=O)(O)O)[C@@H](O)[C@@H]1F)c1cccc(F)c1
< 100 | O=P(O)(O)CP(=O)(O)OC[C@H]1O[C@@H](n2cnc3c(NC4CCCC4)nc(Cl)cc32)[C@H](O)[C@@H]1O
< 100 | CN(c1nc(Cl)cc2c1ncn2[C@@H]1O[C@H](COP(=O)(O)CP(=O)(O)O)[C@@H](O)[C@@H]1F)C1CCCC1

The remaining lines, values behind:

Structure (SMILES) | IC50 [nM]
O=P(O)(O)CP(=O)(O)OC[C@H]1O[C@@H](n2cnc3c(NC4CCCC4)nc(Cl)nc32)[C@H](O)[C@@H]1O | < 100
CC(C)(C)c1ccc(CNc2nc(Cl)nc3c2ncn3[C@@H]2O[C@H](COP(=O)(O)CP(=O)(O)O)[C@@H](O)[C@H]2O)cc1 | < 100
C=Cc1nc(NCc2ccccc2)c2ncn([C@@H]3O[C@H](COP(=O)(O)CP(=O)(O)O)[C@@H](O)[C@H]3O)c2n1 | < 100
C=CCc1nc(NCc2ccccc2)c2ncn([C@@H]3O[C@H](COP(=O)(O)CP(=O)(O)O)[C@@H](O)[C@H]3O)c2n1 | < 100
CCCc1nc(NCc2ccccc2)c2ncn([C@@H]3O[C@H](COP(=O)(O)CP(=O)(O)O)[C@@H](O)[C@H]3O)c2n1 | < 100
COc1nc(NCc2ccccc2)c2ncn([C@@H]3O[C@H](COP(=O)(O)CP(=O)(O)O)[C@@H](O)[C@H]3O)c2n1 | < 100
CNc1nc(NCc2ccccc2)c2ncn([C@@H]3O[C@H](COP(=O)(O)CP(=O)(O)O)[C@@H](O)[C@H]3O)c2n1 | < 100
CN(C)c1nc(NCc2ccccc2)c2ncn([C@@H]3O[C@H](COP(=O)(O)CP(=O)(O)O)[C@@H](O)[C@H]3O)c2n1 | < 100
O=P(O)(O)CP(=O)(O)OC[C@H]1O[C@@H](n2cnc3c(NCc4ccccc4)nc(N4CCCC4)nc32)[C@H](O)[C@@H]1O | < 100
O=P(O)(O)CP(=O)(O)OC[C@H]1O[C@@H](n2cnc3c(NCc4ccccc4)nc(N4CCCCC4)nc32)[C@H](O)[C@@H]1O | < 100
O=P(O)(O)CP(=O)(O)OC[C@H]1O[C@@H](n2cnc3c(NCc4ccccc4)nc(N4CCOCC4)nc32)[C@H](O)[C@@H]1O | < 100
CC(C)S(=O)(=O)c1nc(NCc2ccccc2)c2ncn([C@@H]3O[C@H](COP(=O)(O)CP(=O)(O)O)[C@@H](O)[C@H]3O)c2n1 | 100 to 1000
Nc1nc(Cl)nc2c1ncn2[C@@H]1O[C@H](COP(=O)(O)CP(=O)(O)O)[C@@H](O)[C@@H]1F | < 100
O=P(O)(O)CP(=O)(O)OC[C@H]1O[C@@H](n2cnc3c(NCc4ccccc4)nc(Cl)nc32)[C@@H](F)[C@@H]1O | < 100
CCNc1nc(Cl)nc2c1ncn2[C@@H]1O[C@H](COP(=O)(O)CP(=O)(O)O)[C@@H](O)[C@@H]1F | < 100
CC(C)Nc1nc(Cl)nc2c1ncn2[C@@H]1O[C@H](COP(=O)(O)CP(=O)(O)O)[C@@H](O)[C@@H]1F | < 100
O=P(O)(O)CP(=O)(O)OC[C@H]1O[C@@H](n2cnc3c(NCC4CC4)nc(Cl)nc32)[C@@H](F)[C@@H]1O | < 100
O=P(O)(O)CP(=O)(O)OC[C@H]1O[C@@H](n2cnc3c(N[C@H]4CCOC4)nc(Cl)nc32)[C@@H](F)[C@@H]1O | < 100
O=P(O)(O)CP(=O)(O)OC[C@H]1O[C@@H](n2cnc3c(NC4CCOCC4)nc(Cl)nc32)[C@@H](F)[C@@H]1O | < 100
O=P(O)(O)CP(=O)(O)OC[C@H]1O[C@@H](n2cnc3c(N4CCCC4)nc(Cl)nc32)[C@@H](F)[C@@H]1O | < 100
O=P(O)(O)CP(=O)(O)OC[C@H]1O[C@@H](n2cnc3c(N4CCCCC4)nc(Cl)nc32)[C@@H](F)[C@@H]1O | < 100
O=P(O)(O)CP(=O)(O)OC[C@H]1O[C@@H](n2cnc3c(NCc4ccc(Cl)cc4)nc(Cl)nc32)[C@@H](F)[C@@H]1O | < 100
O=P(O)(O)CP(=O)(O)OC[C@H]1O[C@@H](n2cnc3c(NCc4ccc(F)cc4)nc(Cl)nc32)[C@@H](F)[C@@H]1O | < 100
Cc1cccc(CNc2nc(Cl)nc3c2ncn3[C@@H]2O[C@H](COP(=O)(O)CP(=O)(O)O)[C@@H](O)[C@@H]2F)c1 | < 100
O=P(O)(O)CP(=O)(O)OC[C@H]1O[C@@H](n2cnc3c(NC4CCCC4)nc(Cl)cc32)[C@@H](F)[C@@H]1O | < 100
O=P(O)(O)CP(=O)(O)OC[C@H]1O[C@@H](n2ncc3c(NC4CCCC4)ncnc32)[C@H](O)[C@@H]1O | < 100
